By melting point is commonly meant the temperature, or range, at which the solid turns liquid.

Consider 4 compounds from patent US20200281956A1, “ANTIBACTERIAL COMPOSITION CONTAINING A DEOXYHEXOSE ALKYL MONOACETAL OR MONOETHER” (TEREOS STARCH & SWEETENERS BELGIUM, priority 2015, published 2020).

Data set [1] concerns esterases. As to conditions: cited from earlier work.
Data set [2] deals with S. aureus. As to conditions: literature, in words; cited from earlier work.
The subject of data set [3] is L. monocytogenes. Conditions: literature, in words; cited from earlier work.
For data set [4], the system named is S. aureus. The experiment in a line: MIC on S. aureus staphylococcal strains (microplate dilution, CLSI). The format is cell-based, Staphylococcus aureus. The text has this: (§1) The strains tested are reference strains and cultures that are multi-antibiotic resistant; these are clinical strains that were isolated at the “Hospice de Lyon” and are as follows: • Staphylococcus S. aureus: ATCC® 29213™, ATCC 25923, • Methicillin-resistant S. aureus staphylococcus strains (Lac-Deleo USA 300), (MU 3), (HT 2004-0012), LY 199-0053, (HT 2002-0417), (HT 2006-1004), • Daptomycin-resistant S. aureus staphylococcus strains (ST 2015-0188) (ST 2014 1288), (ST 2015-0989). • Enterococci: E. faecalis (ATCC® 29212™, clinical strains of E. faecalis enterococcus, isolated from urine: strain 015206179901 (hereinafter 9901), strain 015205261801 (hereinafter 1801) • Enterococci: E. faecium (CIP 103510), clinical strains of E. faecium enterococcus: Van A 0151850763 (hereinafter Van A); strain 015 205731401 (hereinafter 1401), • Listeria: L. monocytogenes (CIP 103575), clinical strains isolated from blood culture (015189074801, LM1), strain isolated from cerebrospinal fluid (015170199001, LM2), clinical strain isolated from blood culture (015181840701, LM3).
(§2) The cultures studied, freshly isolated (after incubation on blood agar at 37° C. for 18 h), are taken up in sterile water (10 ml) until a 0.5 McFarland (Mc), i.e. 1 to 2×10^8 CFU (bacteria)/cm^3, suspension is obtained. The bacterial suspension was then diluted in order to obtain a final concentration of 1×10^6 CFU/cm^3.
(§3) Each well contains a final identical amount of Mueller-Hinton medium (rich medium enabling bacterial culture) and of bacteria of 0.5×10^6 CFU/cm^3.
The compounds of interest to be tested are dissolved in ethanol or DMSO at 25 mg/ml before being diluted, with the dilution being doubled each time, to different concentrations. On the multi-well plate, a first series was provided comprising the culture medium without the compound of interest to be tested. This corresponds to the growth control (control wells). These controls serve as a reference for comparing bacterial growth with those of the following wells comprising different concentrations of the compound of interest to be tested. The second series of wells comprises the parent solution of the compound of interest to be tested for a concentration in the well of 256 mg/l (7 mM). Each series of wells was diluted, with the dilution being doubled each time, until the last series for a final concentration of 0.25 mg/l (0.0007 mM). Each concentration is duplicated within the same plate. The plate is incubated for 18 h at 37° C. […] In the case of antibacterial activity, bacterial growth is inhibited which is reflected by the absence of appearance of cloudiness or bacterial pellet.
The minimum inhibitory […] (MIC) are determined on Gram-positive bacterial strains according to the recommendations of the “Clinical Laboratory Standards Institute” (Clinical-Laboratory-Standards-Institute, 6th ed. Approved standard M100-S17. CLSI, Wayne, Pa., 2007).
The cultures studied, freshly isolated (after incubation on blood agar at 37° C. for 18 h), are taken up in sterile water (10 ml) until a 0.5 McFarland (Mc), i.e. to 10^8 CFU (bacteria)/cm^3, suspension is obtained. The bacterial suspension was then diluted in order to obtain a final concentration of 10^6 CFU/cm^3.

Data set [5] relates to L. monocytogenes. The experiment in a line: MIC on strains of Listeria (microplate dilution, CLSI). It is filed as cell-based, Listeria monocytogenes.
Description: as §1, §2, §3
The compounds of interest to be tested are dissolved in ethanol or DMSO at 25 mg/ml before being diluted, with the dilution being doubled each time, to different concentrations. On the multi-well plate, a first series was provided comprising the culture medium without the compound of interest to be tested. This corresponds to the growth control (control wells). These controls serve as a reference for comparing bacterial growth with those of the following wells comprising different concentrations of the compound of interest to be tested. The second series of wells comprises the parent solution of the compound of interest to be tested for a concentration in the well of 256 mg/l (7 mM). Each series of wells was diluted, with the dilution being doubled each time, until the last series for a final concentration of 0.25 mg/l (0.0007 mM). Each concentration is duplicated within the same plate. The plate is incubated for 18 h at 37° C. […]
(§4) The minimum inhibitory […] (MIC) are determined on Gram-positive bacterial strains according to the recommendations of the “Clinical Laboratory Standards Institute” (Clinical-Laboratory-Standards-Institute, 6th ed. Approved standard M100-S17. CLSI, Wayne, Pa., 2007). […]

Data set [6] has as its system E. faecalis. Briefly: MIC on E. faecalis enterococcal strains (microplate dilution, CLSI). The format is cell-based, Enterococcus faecalis.
Description: as §1, §2, §3
(§5) The compounds of interest to be tested are dissolved in ethanol or DMSO at 25 mg/ml before being diluted, with the dilution being doubled each time, to different concentrations. […]
as §4

In data set [7] the test system is E. faecium. The experiment in a line: MIC on E. faecium enterococcal strains (microplate dilution, CLSI). It is filed as cell-based, Enterococcus faecium.
Description: as §1, §2, §3, §5, §4

Consider `CCCCCCCCCCCC(=O)OCC(O)CO` (stereo not shown) [monolaurin], for which the “degradation / half-life (ester function sensitive to esterases)” value in data set [1] was “quickly degraded”.

On to `CCCCCCCCCCCC1OCC2O[C@H](OC)C(O)C(O)[C@H]2O1` (stereo partly drawn) [compound 1d, Methyl 4,6-O-dodecylidene-α-D-galactopyranoside], for which the melting point stood at 115 °C.

Regarding Dodecanoyl sucrose, the “inhibition of the growth of S. aureus” value in data set [2] is “weakly inhibiting the growth”. For the same compound, the “activity against L. monocytogenes” value in data set [3] is reported as “particularly active”.

Regarding “3-O-Dodecyl-1,4-D-sorbitan, 5-O-dodecyl-1,4-D-sorbitan and 6-O-dodecyl-1,4-D-sorbitan [reference compound]”, the “Minimum inhibitory concentration (MIC)” value in data set [4] (S. aureus ATCC 25923, reference strain) was 32 µg/mL; in data set [4] (S. aureus ATCC 29213, reference strain), 32 µg/mL; in data set [4] (daptomycin-resistant S. aureus ST 2014 1288), 64 µg/mL; in data set [4] (daptomycin-resistant S. aureus ST 2015-0188) it was 64 µg/mL; in data set [4] (daptomycin-resistant S. aureus ST 2015-0989), 256 µg/mL; in data set [4] (methicillin-resistant S. aureus HT 2002-0417) it was 32 µg/mL. In addition, the “Minimum inhibitory concentration (MIC)” value in data set [4] (methicillin-resistant S. aureus HT 2004-0012) amounted to 32 µg/mL; in data set [4] (methicillin-resistant S. aureus HT 2006-1004), 32 µg/mL; in data set [4] (methicillin-resistant S. aureus LY 199-0053) it was 32 µg/mL; in data set [4] (methicillin-resistant S. aureus Lac-Deleo USA 300), 32 µg/mL; in data set [4] (methicillin-resistant S. aureus MU 3) it was 64 µg/mL; in data set [5] (L. monocytogenes CIP 103575), 32 µg/mL. The “Minimum inhibitory concentration (MIC)” value worked out at 16 µg/mL in data set [5] (L. monocytogenes clinical strain LM1 (blood culture)); 32 µg/mL in data set [5] (L. monocytogenes clinical strain LM2 (cerebrospinal fluid)); 32 µg/mL in data set [5] (L. monocytogenes clinical strain LM3 (blood culture)); 8 µg/mL in data set [6] (E. faecalis ATCC 29212); 8 µg/mL in data set [6] (E. faecalis clinical strain 1801 (urine)); 16 µg/mL in data set [6] (E. faecalis clinical strain 9901 (urine)). Besides, the “Minimum inhibitory concentration (MIC)” value in data set [7] (E. faecium CIP 103510) was determined as 16 µg/mL; in data set [7] (E. faecium clinical strain 1401) it was 8 µg/mL; in data set [7] (E. faecium clinical strain Van A), 16 µg/mL.
